Consider 42 substances from patent publication US11479587B2, “Cationic intrinsically disordered antimicrobial peptides” (priority 2016, dated 2022).

Marks after values point to notes of the source that are not given here. No end group written: not given here. *: point of attachment. Biotin = O=C1N[C@H]2[C@H](CS[C@H]2CCCCC(=O)*)N1

The test system of the first test is P. aeruginosa ATCC 10145. The test can be described thus: CFU-assay, P. aeruginosa-cidal activity. The settings on record: pH 5.0, 0.25% glucose. The format is cell-based, Pseudomonas aeruginosa.
“SLSSGHGSGHGHQRGGHRSGSG (Peptide with scrambled amino acid sequence of a 18 amino acid peptide derived from human hornerin (scrHR 1-18))” had an MBC90 of under 0.019 µg/mL and an MBC100 of 0.075 µg/mL.
The corresponding values for “GRHGSGGGHSSSHGGHGSGSGR (Modified peptide derived from human hornerin (HR 1-18 L-G/Q-G))” are 0.038 µg/mL and 0.15 µg/mL.
Take “GRHGGGGGHGGGHGGHGGGGGR (Modified peptide derived from human hornerin (HR 1-18 L-G/Q-G/6S-6G))”: the MBC90 is 0.038 µg/mL and the MBC100 stood at 0.15 µg/mL.
Turning to “Biotin-GRHGSGLGHSSSHGQHGSGSGR [Biotin-HR 1-18]”, the MBC100 was over 300 µg/mL.

The same test, now with this note: pH 5.5, 0.25% glucose.
As for “HTHSGHTHSQARSQHGESESTVHKR (Peptide derived from human filaggrin-2 (FLG-2 1894-1918)) [FLG-21894-1918]”, the MBC90 amounted to 0.038 µg/mL and the MBC100 is 0.3 µg/mL.
In turn, “HTHSGHTHGQARSQHGESESIVHER (Peptide derived from human filaggrin-2 (FLG-2 1742-1766)) [FLG-21742-1766]” yielded an MBC90 of 0.038 µg/mL and an MBC100 of 0.15 µg/mL.
Take “HGQSTQRGSRTAGRRGSGH (Peptide derived from human filaggrin-2 (FLG-2 2087-2105)) [FLG-22087-2105]”: the MBC90 was determined as 0.075 µg/mL and the MBC100 stood at 1.18 µg/mL.
In the case of “GSRTAGRRGSGH (Peptide derived from human filaggrin-2 (FLG-2 2094-2105)) [FLG-22094-2105]”, the MBC100 is over 300 µg/mL.
Substance “HGHGH (Synthetic cationic intrinsically disordered antimicrobial peptide (GH5))” registered an MBC90 of 6.0 µM and an MBC100 of 138 µM.
For “HGHGHGH (Synthetic cationic intrinsically disordered antimicrobial peptide (GH7))” the same measures were 0.25 µM and 7.2 µM.
For “RGRGRGRGR (Synthetic cationic intrinsically disordered antimicrobial peptide (GR9))”, the MBC90 is 0.22 µM; the MBC99 entry was “MBC99: 10.2 μM”; the MBC100 is given as >400, μM.
As for “LGHSSSHGQHGSGSGRSSSRGPYESRLGH [HR 1-36 HRNR2663-2690]”, the MBC90 is 0.15 µg/mL and the MBC100 worked out at 2.35 µg/mL.
For “HTHSGHTHGQSGSQHGESESIIHDR (Peptide derived from human filaggrin-2 (FLG-2 1515-1539)) [FLG-21515-1539]” the same measures were 0.075 µg/mL and 0.59 µg/mL.
For the substance “HAHSGHGQSTQRGSR (Peptide derived from human filaggrin-2 (FLG-2 2082-2096)) [FLG-22082-2096]”, the MBC90 came out at 0.15 µg/mL and the MBC100 came to 1.18 µg/mL.
For “RGSRSGQSSRGERR (Modified peptide derived from human hornerin (HR 1-11s 2H2R-14))” the same measures were 0.15 µg/mL and 4.7 µg/mL.
“GKKGGKGGKGKGK (Synthetic cationic intrinsically disordered antimicrobial peptide (K-GR13))” had an MBC90 of 0.063 µM and an MBC100 of 2.0 µM.
On to “RHGSGLGHSSSHGQH (Peptide derived from human hornerin (HR 1-26 HRNR 2657-2671)) [HR 1-26 HRNR2657-2671]”, for which the MBC100 is reported as 4.7-75* μg/ml.
The substance “HGH (Synthetic cationic intrinsically disordered antimicrobial peptide (GH3))” had an MBC90 of 200 µM and an MBC100 of over 860 µM.
For “GHHGGHGGHGHGH (Synthetic cationic intrinsically disordered antimicrobial peptide (GH13))” the same measures were 0.030 µM and 0.12 µM.
For “RGRGRGR (Synthetic cationic intrinsically disordered antimicrobial peptide (GR7))” the same measures were 0.31 µM and 2.8 µM.
On to “HGSGLGHSSSHGQHGSGSGR (Peptide derived from human hornerin (HR 1-8 HRNR2658-2677))”, for which the MBC90 turned out to be 4.7 µg/mL and the MBC100 is over 300 µg/mL.
Take “THEHEQSHQRRDRQTHEDKQNRQR (Peptide derived from human repetin (RPTN 747-770)) [RPTN747-770]”: the MBC90 was 0.3 µg/mL and the MBC100 stood at 150 µg/mL.
The corresponding values for “QGSHHEQSVNRSGHSGSHHSHTTSQGR (Peptide derived from human filaggrin (FLG 528-554)) [FLG528-554]” are 0.15 µg/mL and 0.59 µg/mL.
On to “GRHGSGSGQSSSYSPYGSGSGWSSSR (Peptide derived from human hornerin (HRNR 2422-2447)) [HRNR2422-2447]”, for which the MBC100 was over 300 µg/mL.
“HAHSGHGQSTQR (Peptide derived from human filaggrin-2 (FLG-2 2082-2093)) [FLG-22082-2093]” registered an MBC90 of 0.15 µg/mL and an MBC100 of 2.35 µg/mL.
For “RGR (Synthetic cationic intrinsically disordered antimicrobial peptide (GR3))” the same measures were 150 µM and over 930 µM.
As to “HSQRGSGSRQSPSYGRH (Modified peptide derived from human hornerin (HR 2-16 HRNR1128-1144))”, the MBC100 was 37.5 (only at μg/ml.
In turn, “GRHGSGLGHSSSH (Peptide derived from human hornerin (HR 1-37 HRNR 2656-2668)) [HR 1-37 HRNR2656-2668]” yielded an MBC90 of 9.38 µg/mL and an MBC100 of over 300 µg/mL.

The test is the same for the next values; noted with them: pH 5.5, 1% TSB.
“HGSGSGQSSRGERHGSSSGSSSH (Modified peptide derived from human hornerin (HR 1-11 R1-G R2609G))”: the MBC90 is recorded as >300* μg/ml and the MBC100 was >300* μg/ml.
Consider “HGSRSGQSSRGERHGSSSGSSSG (Modified peptide derived from human hornerin (HR 1-11 H3-G H2628G))”, for which the MBC90 amounted to 18.75 µg/mL and the MBC100 was over 300 µg/mL.
For “HGSRSGQSSGGGRHGSSSGSSSH (Modified peptide derived from human hornerin (HR 1-11 E-G E2617G))” the same measures were 0.59 µg/mL and over 300 µg/mL.
“HGSSSGSSSHYGQHGSGSR (Peptide derived from human hornerin (HR 1-4 HRNR 2619-2637)) [HR 1-4 HRNR2619-2637]” yielded an MBC90 of 150 µg/mL and an MBC100 of over 300 µg/mL.
On to “GSGSRQSPSRGRHGSGSGR (Modified peptide derived from human hornerin (HR 2-4R HRNR 1132-1150 Y1141R)) [HR 2-4R HRNR1132-1150 Y1141R]”, for which the MBC100 is over 300 µg/mL.
For the substance “RQSPSYGRHGSGSGR (Peptide derived from human hornerin (HR 2-14 HRNR 1136-1150)) [HR 2-14 HRNR1136-1150]”, the MBC90 turned out to be 300 µg/mL and the MBC100 was over 300 µg/mL.
In turn, “GRHGSGSGQSSSYGPYGSGSGWSSSRGPY (Peptide derived from human hornerin (HRNR 1952-1980)) [HRNR1952-1980]” displayed an MBC100 of over 300 µg/mL.
Take “GSGSRQSLSYGRHGSGSGR (Modified peptide derived from human hornerin (HR 2-4L HRNR 1132-1150 P1139L)) [HR 2-4L HRNR1132-1150 P1139L]”: the MBC90 is 75 µg/mL and the MBC100 was over 300 µg/mL.
The corresponding values for “GRHGSGLGHSSSHGQH (Peptide derived from human hornerin (HR 1-25 HRNR 2656-2671)) [HR 1-25 HRNR2656-2671]” are 0.3 µg/mL and 4.7 µg/mL.
Turning to “GGSRSGQSSRGERHGSSSGSSSH (Modified peptide derived from human hornerin (HR 1-11 H1-GH2606G))) [HR 1-11 H1-G H2606G]”, the MBC90 is recorded as >300* μg/ml and the MBC100 is listed as >300* μg/ml.
“GRHGSGSGQSSSYGPYRSGSGWSSSRGPY (Peptide derived from human hornerin (HRNR 1013-1041)) [HRNR1013-1041]” registered an MBC100 of over 300 µg/mL.
The substance “HGSGLGHSSSHGQHGSGSGR (Peptide derived from human hornerin (HR 1-8 HRNR2658-2677))” registered an MBC100 of over 300 µg/mL.
Take “GSGSRQSPSYGRHGSGSGRSSSSGQH (Peptide derived from human hornerin (HR 2-11 HRNR 1132-1157)) [HR 2-11 HRNR1132-1157]”: the MBC90 was 37.5 µg/mL and the MBC100 was over 300 µg/mL.
For “GSGSRQSSSYGRHGSGSGR (Modified peptide derived from human hornerin (HR 2-4S HRNR 1132-1150 P1139S)) [HR 2-4S HRNR1132-1150 P1139S]” the same measures were 150 µg/mL and over 300 µg/mL.
For “GSGSRQSSGHGRQGSGSGQ (Modified peptide derived from human hornerin (HR 1-16 HRNR 2633-2651)) [HR 1-16 HRNR2633-2651]” the same measures were over 300 µg/mL and over 300 µg/mL.

Still in this test, the particulars now being: pH 7.0, 0.25% glucose.
The substance “GRHGSGGGHSSSHGGHGSGSGR (Modified peptide derived from human hornerin (HR 1-18 L-G/Q-G))” had an MBC90 of over 300 µg/mL and an MBC100 of over 300 µg/mL.
In turn, “GRHGGGGGHGGGHGGHGGGGGR (Modified peptide derived from human hornerin (HR 1-18 L-G/Q-G/6S-6G))” registered an MBC90 of over 300 µg/mL and an MBC100 of over 300 µg/mL.
